Data taken from patent US4259328A, “Morpholino pyridazinylhydrazones” (Richter Gedeon Vegyeszeti Gyar Rt, priority 1977, dated 1981).
Where two headings read alike, the source gives them in different places.

Legend:
[1] = Acute toxicity (LD50) on mice; conditions: mouse, in vivo, po
[2] = system: spontaneous hypertensive rats (Wistar-Okamoto rats); assay: Blood pressure lowering activity, systolic blood pressure of waking spontaneous hypertensive rats, oral; type: in vivo, rat; conditions: for change in vivo at 50 mg/kg / change in vivo at 20 mg/kg / change in vivo at 2.5 mg/kg: Rattus norvegicus, oral, read-out: Reduction in blood pressure; for significant blood pressure lowering activity: ≥-15%
Description: Blood pressure lowering activity of the new compounds according to the invention was tested on spontaneous hypertensive rats (Wistar-Okamoto rats) following the method described in Arzn. Forsch., 6, 222 (1956). Systolic blood pressure of waking animals was measured in arteria caudalis 4, 24, 48 and 72 hours after the oral administration of the test compounds.

dopamine-β-hydroxylase = biological target: T1, dopamine-β-hydroxylase (Bos taurus, UniProt P15101); assay: Dopamine-β-hydroxylase inhibiting activity (DBH) on bovine adrenal (gland) preparations; type: biochemical; conditions: read-out: Enzyme inhibiting activity, DBH; for inhibition at 100 µM: 10^-4 mole/liter; for inhibition at 10 µM: 10^-5 mole/liter
T1 construct: from tissue; host or cells: bovine adrenal (gland) preparations
T1 sequence (P15101 1-610): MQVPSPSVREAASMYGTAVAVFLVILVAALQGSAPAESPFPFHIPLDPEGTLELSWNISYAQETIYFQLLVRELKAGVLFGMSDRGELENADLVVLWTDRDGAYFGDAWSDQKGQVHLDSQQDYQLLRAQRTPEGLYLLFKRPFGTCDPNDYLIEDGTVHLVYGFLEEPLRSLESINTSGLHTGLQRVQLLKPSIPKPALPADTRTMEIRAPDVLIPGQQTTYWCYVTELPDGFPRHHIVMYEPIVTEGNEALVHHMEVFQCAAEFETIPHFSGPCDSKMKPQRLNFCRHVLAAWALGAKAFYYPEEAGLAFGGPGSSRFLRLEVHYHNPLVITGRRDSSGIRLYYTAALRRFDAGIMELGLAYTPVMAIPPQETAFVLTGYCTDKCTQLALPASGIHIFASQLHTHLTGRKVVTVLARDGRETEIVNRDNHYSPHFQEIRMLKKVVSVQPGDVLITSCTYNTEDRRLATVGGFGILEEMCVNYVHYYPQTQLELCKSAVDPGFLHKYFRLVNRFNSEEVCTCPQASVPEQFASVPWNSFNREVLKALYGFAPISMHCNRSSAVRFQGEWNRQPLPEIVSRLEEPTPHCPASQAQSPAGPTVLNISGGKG
Description: Dopamine-β-hydroxylase inhibiting activity (DBH inhibiting activity) of the compounds according to the invention was tested on bovine adrenal (gland) preparations by a modified version of Nagatsu's method [B.B. Acta, 139 319 (1967)].
(§1) Inhibiting effect of several compounds encompassed by the formula I in comparison with some known compounds is listed in the following Table I.

tyrosine-hydroxylase = biological target: T2, tyrosine-hydroxylase (Rattus norvegicus, UniProt P04177); assay: In vitro tyrosine-hydroxylase inhibiting activity (TH) on rat adrenal homogenate; type: biochemical; conditions: read-out: Enzyme inhibiting activity, TH; for inhibition at 100 µM: 10^-4 mole/liter; for inhibition at 10 µM: 10^-5 mole/liter
T2 construct: on rat adrenal homogenate; from tissue; host or cells: rat adrenal homogenate
Description: In vitro tyrosine-hydroxylase inhibiting activity (TH inhibiting activity) of the new compounds according to the invention was tested by the method of Nagatsu [Anal. Biochem., 9, 122 (1964)] on rat adrenal homogenate. Radioactive tyrosine was purified by the method elaborated by Ikeda [J. Biol. Chem., 241, 4452 (1966)]. TH activity of the rat adrenal homogenate amounted to […] nmoles/mg protein/60 min.
as §1

T2 sequence (P04177 whole entry): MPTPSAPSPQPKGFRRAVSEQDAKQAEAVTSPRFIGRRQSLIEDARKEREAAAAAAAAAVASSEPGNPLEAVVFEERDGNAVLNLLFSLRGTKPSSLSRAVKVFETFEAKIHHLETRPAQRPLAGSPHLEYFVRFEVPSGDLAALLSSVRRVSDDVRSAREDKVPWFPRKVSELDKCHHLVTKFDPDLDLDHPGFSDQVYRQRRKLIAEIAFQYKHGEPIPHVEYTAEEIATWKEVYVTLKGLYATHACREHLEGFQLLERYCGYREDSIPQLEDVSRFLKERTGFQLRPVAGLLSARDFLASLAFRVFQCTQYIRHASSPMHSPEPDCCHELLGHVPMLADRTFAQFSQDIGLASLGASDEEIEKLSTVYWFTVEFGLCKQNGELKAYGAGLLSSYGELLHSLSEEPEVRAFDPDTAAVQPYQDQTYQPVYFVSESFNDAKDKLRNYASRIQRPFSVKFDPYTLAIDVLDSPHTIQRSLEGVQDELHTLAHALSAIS

| Structure (SMILES) | LD50 [1] | significant blood pressure lowering activity [2] | inhibition at 100 µM (dopamine-β-hydroxylase) | inhibition at 10 µM (dopamine-β-hydroxylase) | inhibition at 100 µM (tyrosine-hydroxylase) | inhibition at 10 µM (tyrosine-hydroxylase) | other results |
| --- | --- | --- | --- | --- | --- | --- | --- |
| CC(CC(=O)OC(C)(C)C)=NNc1ccc(C)nn1 [Example 53, 3-(tert.-Butoxycarbonyl)-2-propylidene-(3-methyl-6-pyridazinyl) hydrazone] | 200 mg/kg | ≥ -15% | – | – | – | – | change in vivo at 50 mg/kg ([2]; 4 hours): -32%; change in vivo at 50 mg/kg ([2]; 24 hours): -27% |
| CCOC(=O)CC=NNc1ccc(Cl)nn1 [Example 65, 2-(Ethoxycarbonyl)-1-ethylidene-(3-chloro-6-pyridazinyl)hydrazone] | > 200 mg/kg | ≥ -15% | 73% | 44% | – | – | change in vivo at 50 mg/kg ([2]; 4 hours): -18%; change in vivo at 50 mg/kg ([2]; 24 hours): -23% |
| CC(CCCC(=O)O)=NNc1ccc(Cl)nn1 [Example 50, 5-Carboxy-2-pentylidene-3-chloro-6-pyridazinylhydrazone] | 200 mg/kg | ≥ -15% | 73% | 0% | – | – | change in vivo at 20 mg/kg ([2]; 4 hours): -28%; change in vivo at 20 mg/kg ([2]; 24 hours): -30% |
| CCOC(=O)CCCC(C)=NNc1ccc(Cl)nn1 [Example 26] | 200 mg/kg | ≥ -15% | – | – | – | – | change in vivo at 50 mg/kg ([2]; 4 hours): -38%; change in vivo at 50 mg/kg ([2]; 24 hours): -29% |
| CC1CCCCC1=NNc1ccc(Cl)nn1 (centres unmarked) [Example 15, 2-Methyl-1-cyclohexylidene-3-chloro-6-pyridazinylhydrazone] | – | – | 88% | 32% | 100% | 50% | – |
| CCOC(=O)C(C)C(C)=NNc1ccc(Cl)nn1 (centres unmarked) [Example 25, 3-(Ethoxycarbonyl)-2-butylidene-3-chloro-6-pyridazinylhydrazone] | 200 mg/kg | ≥ -15% | – | – | – | – | change in vivo at 50 mg/kg ([2]; 4 hours): -33%; change in vivo at 50 mg/kg ([2]; 24 hours): -17% |
| CCOC(=O)CCCCC(C)=NNc1ccc(Cl)nn1 [Example 49, 6-(Ethoxycarbonyl)-2-hexylidene-3-chloro-6-pyridazinylhydrazone] | < 200 mg/kg | ≥ -15% | 66% | 50% | – | – | change in vivo at 20 mg/kg ([2]; 4 hours): -22%; change in vivo at 20 mg/kg ([2]; 24 hours): -13% |
| O=C(O)C1CCCCC1=NNc1ccc(Cl)nn1 (centres unmarked) [Example 18, 2-Carboxy-1-cyclohexylidene-3-chloro-6-pyridazinylhydrazone] | – | – | 88% | 32% | 100% | 50% | – |
| CC(CCC(=O)O)=NNc1ccc(Cl)nn1 [Example 38, 4-Carboxy-2-butylidene-3-chloro-6-pyridazinylhydrazone] | 200 mg/kg | ≥ -15% | – | – | – | – | change in vivo at 50 mg/kg ([2]; 4 hours): -34%; change in vivo at 50 mg/kg ([2]; 24 hours): -27% |
| CC(CCC(=O)OC(C)(C)C)=NNc1ccc(Cl)nn1 [Example 43, 4-(tert.-Butoxycarbonyl)-2-butylidene-3-chloro-6-pyridazinylhydrazone] | 200 mg/kg | ≥ -15% | – | – | – | – | change in vivo at 50 mg/kg ([2]; 4 hours): -32%; change in vivo at 50 mg/kg ([2]; 24 hours): -18% |
| CCOC(=O)CC(=NNc1ccc(Cl)nn1)c1cccnc1 [Example 37, 1-(Ethoxycarbonyl)-2-(3-pyridyl)-2-ethylidene-3-chloro-6-pyridazinylhydrazone] | – | – | 100% | 41% | – | – | – |
| CC12CCC(CC1=NNc1cccnn1)C2(C)C (centres unmarked) [Example 3, 1,7,7-Trimethy-2-bicyclo-[2,2,1]heptylidene-3-pyridazinylhydrazone] | – | – | 80% | 0% | 100% | 75% | – |
| c1cc(N2CCOCC2)nnc1NN=C1CCCCC1 [Example 10, Cyclohexylidene-3-morpholino-6-pyridazinylhydrazone] | < 200 mg/kg | ≥ -15% | – | – | – | – | change in vivo at 2.5 mg/kg ([2]; 4 hours): -41%; change in vivo at 2.5 mg/kg ([2]; 24 hours): -26% |
| CCOC(=O)CCC(C)=NNc1ccc(Cl)nn1 [Example 62, 4-(Ethoxycarbonyl)-2-butylidene-(3-chloro-6-pyridazinl)hydrazone] | 200 mg/kg | ≥ -15% | 60% | – | – | – | change in vivo at 50 mg/kg ([2]; 4 hours): -29%; change in vivo at 50 mg/kg ([2]; 24 hours): -26% |
| CC(CCC(=O)O)=NNc1ccc(C)nn1 [Example 55, 4-Carboxy-2-butylidene-(3-methyl-6-pyridazinyl) hydrazone] | > 200 mg/kg | ≥ -15% | 50% | 0% | – | – | change in vivo at 20 mg/kg ([2]; 4 hours): -39%; change in vivo at 20 mg/kg ([2]; 24 hours): -14% |
| CC(CC(=O)OC(C)(C)C)=NNc1ccc(C(N)=O)nn1 [Example 56, 3-(tert.-Butoxycarbonyl)-2-propylidene-(3-carbamoyl-6-pyridazinyl) hydrazine] | > 200 mg/kg | ≥ -15% | – | – | – | – | change in vivo at 20 mg/kg ([2]; 4 hours): -20%; change in vivo at 20 mg/kg ([2]; 24 hours): 0% |
| CC(=NNc1cccnn1)c1ccccc1 [Example 13, 1-Phenyl-1-ethylidene-3-pyridazinylhydrazone] | – | – | 90% | 10% | 95% | 40% | – |
| CC(CCC(=O)O)=NNc1ccc(N2CCOCC2)nn1 [Example 48, 4-Carboxy-2-butylidene-3-morpholino-6-pyridazinylhydrazone] | 200 mg/kg | ≥ -15% | – | – | – | – | change in vivo at 2.5 mg/kg ([2]; 4 hours): -33%; change in vivo at 2.5 mg/kg ([2]; 24 hours): -8% |
| CCOC(=O)CC(CC)=NNc1ccc(Cl)nn1 [Example 27, 1-(Ethoxycarbonyl)-2-butylidene-3-chloro-6-pyridazinylhydrazone] | – | ≥ -15% | – | – | – | – | – |
| CC(CCCC(=O)O)=NNc1ccc(N2CCOCC2)nn1 [Example 57, 5-Carboxy-2-pentylidene-3-morpholino-6-pyridazinylhydrazone] | 200 mg/kg | ≥ -15% | – | – | – | – | change in vivo at 2.5 mg/kg ([2]; 4 hours): -28%; change in vivo at 2.5 mg/kg ([2]; 24 hours): -16% |
| COC(=O)CC(C)=NNc1ccc(Cl)nn1 [Example 24, 3-(Methoxycarbonyl)-2-propylidene-3-chloro-6-pyridazinylhydrazone] | – | – | 100% | 50% | – | – | – |
| CCCCc1ccc(C(=O)O)nc1 [Fusaric acid, reference compound] | – | – | 100% | 100% | 0% | 0% | – |
| CCOC(=O)CC(C)=NNc1cccnn1 [Example 22, 3-(Ethoxycarbonyl)-2-propylidene-(3-pyridazinyl)hydrazone] | – | – | 100% | 56% | 100% | 50% | – |
| c1cnnc(NN=C2CCCCC2)c1 [Example 12, Cyclohexylidene-3-pyridazinylhydrazone] | – | – | 84% | 10% | 100% | 85% | – |
| CC(N)(Cc1ccc(O)cc1)C(=O)O (racemic) [D,L-α-methyl-4-hydroxy-phenyl-alanine, reference compound] | – | – | 0% | 0% | 100% | 60% | – |
| CCOC(=O)CC(=NNc1ccc(Cl)nn1)c1ccccc1 [Example 34, 1-(Ethoxycarbonyl)-2-phenyl-2-ethylidene-3-chloro-6-pyridazinylhydrazone] | – | – | 100% | 40% | – | – | – |
